Data: ChEMBL document CHEMBL3393039, “Anthranilic acid derivatives as nuclear receptor modulators--development of novel PPAR selective and dual PPAR/FXR ligands” (Bioorg Med Chem, 2015)
pEC50: −log10 of the molar value. Values after ≈ are worked out from the molar mass of the structure shown. Active and inactive are the calls of the source. The rule behind the calls is not given here.

Experiments:
[1] = target: T1, Peroxisome proliferator-activated receptor alpha (Homo sapiens, UniProt Q07869); assay: Transactivation of Gal4-tagged PPARalpha ligand binding domain (unknown origin) expressed in COS7 cells measured after overnight incubation by luciferase reporter gene assay; assay type: cell-based, COS-7
T1 sequence (Q07869 whole entry): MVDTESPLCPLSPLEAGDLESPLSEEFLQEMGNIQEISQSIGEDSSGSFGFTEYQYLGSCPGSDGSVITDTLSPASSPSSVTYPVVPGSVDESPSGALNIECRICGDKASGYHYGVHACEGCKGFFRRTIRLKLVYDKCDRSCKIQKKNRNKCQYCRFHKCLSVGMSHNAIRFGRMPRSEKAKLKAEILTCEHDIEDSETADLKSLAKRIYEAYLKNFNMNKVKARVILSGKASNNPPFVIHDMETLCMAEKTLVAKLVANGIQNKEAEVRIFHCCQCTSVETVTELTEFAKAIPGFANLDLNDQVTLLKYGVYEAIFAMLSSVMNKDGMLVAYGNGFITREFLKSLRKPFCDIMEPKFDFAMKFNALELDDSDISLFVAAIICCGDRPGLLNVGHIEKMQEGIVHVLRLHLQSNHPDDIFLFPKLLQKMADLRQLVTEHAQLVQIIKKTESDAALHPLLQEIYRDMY

[2] = target: T2, Peroxisome proliferator-activated receptor gamma (Homo sapiens, UniProt P37231); assay: Transactivation of Gal4-tagged PPARgamma ligand binding domain (unknown origin) expressed in COS7 cells measured after overnight incubation by luciferase reporter gene assay; assay type: cell-based, COS-7
T2 sequence (P37231 whole entry): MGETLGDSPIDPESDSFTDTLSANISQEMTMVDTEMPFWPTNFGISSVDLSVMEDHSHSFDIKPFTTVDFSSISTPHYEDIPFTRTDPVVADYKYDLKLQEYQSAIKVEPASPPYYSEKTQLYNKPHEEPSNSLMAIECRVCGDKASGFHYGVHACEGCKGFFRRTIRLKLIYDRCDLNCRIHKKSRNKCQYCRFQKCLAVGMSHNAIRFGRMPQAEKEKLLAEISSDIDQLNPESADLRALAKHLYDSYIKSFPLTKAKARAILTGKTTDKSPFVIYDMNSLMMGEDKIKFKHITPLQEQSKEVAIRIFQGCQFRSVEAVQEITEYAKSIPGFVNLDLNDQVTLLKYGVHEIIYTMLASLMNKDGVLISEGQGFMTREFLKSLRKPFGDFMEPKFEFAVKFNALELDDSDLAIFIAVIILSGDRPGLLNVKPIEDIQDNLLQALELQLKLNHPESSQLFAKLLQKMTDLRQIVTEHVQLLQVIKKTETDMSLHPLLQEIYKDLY

[3] = target: T3, Peroxisome proliferator-activated receptor gamma (Homo sapiens) (UniProt P37231); assay: Transactivation of Gal4-tagged PPARgamma ligand binding domain (unknown origin) expressed in COS7 cells measured after overnight incubation by luciferase reporter gene assay relative to piaglitazone; assay type: cell-based; details: Chlorocebus aethiops; COS-7
T3 sequence (whole entry): T2 sequence (P37231 whole entry)

[4] = target: T4, Peroxisome proliferator-activated receptor delta (Homo sapiens, UniProt Q03181); assay: Transactivation of Gal4-tagged PPARdelta ligand binding domain (unknown origin) expressed in COS7 cells measured after overnight incubation by luciferase reporter gene assay; assay type: cell-based, COS-7
T4 sequence (Q03181 whole entry): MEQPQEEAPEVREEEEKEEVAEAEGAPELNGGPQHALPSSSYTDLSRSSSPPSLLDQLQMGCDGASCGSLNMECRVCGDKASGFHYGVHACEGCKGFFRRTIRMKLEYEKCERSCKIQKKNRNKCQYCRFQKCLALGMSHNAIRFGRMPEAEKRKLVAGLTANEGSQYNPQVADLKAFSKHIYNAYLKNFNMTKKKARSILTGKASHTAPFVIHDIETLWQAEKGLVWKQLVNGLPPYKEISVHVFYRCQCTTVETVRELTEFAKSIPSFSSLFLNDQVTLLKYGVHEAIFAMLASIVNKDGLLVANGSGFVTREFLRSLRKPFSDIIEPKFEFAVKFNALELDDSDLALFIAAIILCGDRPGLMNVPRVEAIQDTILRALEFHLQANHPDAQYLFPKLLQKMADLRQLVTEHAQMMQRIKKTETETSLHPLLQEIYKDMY

[5] = target: T5, Peroxisome proliferator-activated receptor delta (Homo sapiens) (UniProt Q03181); assay: Transactivation of Gal4-tagged PPARdelta ligand binding domain (unknown origin) expressed in COS7 cells measured after overnight incubation by luciferase reporter gene assay relative to L165,041; assay type: cell-based; details: Chlorocebus aethiops; COS-7
T5 sequence (whole entry): T4 sequence (Q03181 whole entry)

Bile acid receptor = target: T6, Bile acid receptor (Homo sapiens, UniProt Q96RI1); assay: Transactivation of human FXR expressed in human HeLa cells incubated for 24 hrs by luciferase reporter gene assay; assay type: cell-based
T6 sequence (Q96RI1 whole entry): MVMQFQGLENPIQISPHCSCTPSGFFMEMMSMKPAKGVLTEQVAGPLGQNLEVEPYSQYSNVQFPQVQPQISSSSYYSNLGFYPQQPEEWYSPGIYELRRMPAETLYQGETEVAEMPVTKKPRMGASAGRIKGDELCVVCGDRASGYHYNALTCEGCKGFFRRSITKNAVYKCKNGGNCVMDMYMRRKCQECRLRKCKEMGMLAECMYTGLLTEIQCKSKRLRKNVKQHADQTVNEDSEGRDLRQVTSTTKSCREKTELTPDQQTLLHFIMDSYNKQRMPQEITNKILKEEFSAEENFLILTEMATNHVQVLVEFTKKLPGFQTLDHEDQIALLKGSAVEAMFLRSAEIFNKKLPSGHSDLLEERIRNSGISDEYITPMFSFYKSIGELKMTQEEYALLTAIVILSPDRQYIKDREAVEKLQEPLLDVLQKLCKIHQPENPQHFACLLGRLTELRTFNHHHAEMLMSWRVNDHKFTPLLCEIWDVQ

[6] = target: T7, Bile acid receptor (Homo sapiens) (UniProt Q96RI1); assay: Transactivation of human FXR expressed in human HeLa cells incubated for 24 hrs by luciferase reporter gene assay relative to GW4064; assay type: cell-based
T7 sequence (whole entry): T6 sequence (Q96RI1 whole entry)

[7] = target: T8, Peroxisome proliferator-activated receptor alpha (Homo sapiens) (UniProt Q07869); assay: Transactivation of Gal4-tagged PPARalpha ligand binding domain (unknown origin) expressed in COS7 cells at 10 uM measured after overnight incubation by luciferase reporter gene assay; assay type: cell-based; details: COS-7
T8 sequence (whole entry): T1 sequence (Q07869 whole entry)

[8] = target: T5, Peroxisome proliferator-activated receptor delta (Homo sapiens); assay: Transactivation of Gal4-tagged PPARdelta ligand binding domain (unknown origin) expressed in COS7 cells at 30 uM measured after overnight incubation by luciferase reporter gene assay; assay type: cell-based; details: COS-7
[9] = target: T3, Peroxisome proliferator-activated receptor gamma (Homo sapiens); assay: Transactivation of Gal4-tagged PPARgamma ligand binding domain (unknown origin) expressed in COS7 cells at 10 uM measured after overnight incubation by luciferase reporter gene assay; assay type: cell-based; details: COS-7
[10] = Aqueous solubility of the compound; assay type: physicochemical; details: aqueous medium (not specified further)
[11] = target: T8, Peroxisome proliferator-activated receptor alpha (Homo sapiens); assay: Transactivation of Gal4-tagged PPARalpha ligand binding domain (unknown origin) expressed in COS7 cells at 30 uM measured after overnight incubation by luciferase reporter gene assay; assay type: cell-based; details: COS-7
[12] = target: T7, Bile acid receptor (Homo sapiens); assay: Transactivation of human FXR expressed in human HeLa cells at 30 uM incubated for 24 hrs by luciferase reporter gene assay; assay type: cell-based
[13] = Antiproliferative activity against human HepG2 cells assessed as cell viability at 5 uM after 48 hrs by WST1 assay (reference value: 100%); assay type: cell-based; details: read-out: Activity
[14] = Antiproliferative activity against human HepG2 cells assessed as cell viability at 10 uM after 48 hrs by WST1 assay (reference value: 100%); assay type: cell-based; details: read-out: Activity
[15] = Antiproliferative activity against human HepG2 cells assessed as cell viability at 50 uM after 48 hrs by WST1 assay (reference value: 100%); assay type: cell-based; details: read-out: Activity
[16] = Cytotoxic activity against human HepG2 cells assessed as LDH release at 5 uM after 48 hrs by LDH release assay (reference value: 100%)
[17] = Cytotoxic activity against human HepG2 cells assessed as LDH release at 10 uM after 48 hrs by LDH release assay (reference value: 100%)
[18] = Cytotoxic activity against human HepG2 cells assessed as LDH release at 30 uM after 48 hrs by LDH release assay (reference value: 100%)

Row | SMILES | pEC50 [1] | pEC50 [2] | max activation [3] [%] | pEC50 [4] | max activation [5] [%] | pEC50 (Bile acid receptor) | max activation [6] [%] | max activation [7] [%] | Activity [8] | max activation [9] [%] | further results
1 | CC(C)(C)c1ccc(C(=O)Nc2ccccc2C(=O)Nc2cc(C(=O)O)ccc2F)cc1 |  | 5.24 | 735 |  |  |  | 12 | 17 | inactive |  | 
2 | CCc1ccc(C(=O)Nc2ccccc2C(=O)NCCCC(=O)O)cc1 | 4.80 |  |  |  |  |  |  |  | inactive | 39 | 
3 | O=C(O)c1ccc(CNC(=O)c2ccccc2NC(=O)c2ccc3ccccc3c2)cc1 |  |  |  |  |  |  |  | 17 | inactive | 56 | 
4 | O=C(O)CCCCCNC(=O)c1ccccc1NC(=O)c1ccc2ccccc2c1 |  |  |  |  |  |  |  | 38 | inactive | 40 | 
5 | O=C(O)Cc1ccc(NC(=O)c2ccccc2NC(=O)c2ccc3ccccc3c2)cc1 |  |  |  |  |  |  |  |  | inactive | 25 | Activity [11]: inactive
6 | O=C(O)c1cccc(NC(=O)c2ccc(Cl)cc2NC(=O)c2ccc(C(F)(F)F)cc2)c1 | 4.73 | 5.06 | 420 | 5.47 | 16.5 | 5.68 | 17.8 |  |  |  | 

The next lines start with results.

Row | pEC50 [1] | pEC50 [2] | max activation [3] [%] | pEC50 [4] | max activation [5] [%] | pEC50 (Bile acid receptor) | max activation [6] [%] | max activation [7] [%] | Activity [8] | max activation [9] [%] | SMILES | further results
7 | 5.27 | 5.03 | 161 | 5.66 | 58 | 5.59 | 14.8 |  |  |  | O=C(O)Cc1cccc(NC(=O)c2ccccc2NC(=O)c2ccc(C(F)(F)F)cc2)c1 | 
8 | 5.23 | 5.16 | 70 | 5.17 | 120 | 5.64 | 13 |  |  |  | O=C(O)CCc1cccc(NC(=O)c2ccccc2NC(=O)c2ccc(C(F)(F)F)cc2)c1 | 
9 |  | 5.20 | 163 |  |  |  |  |  | inactive |  | Cc1ccc(C(=O)O)cc1NC(=O)c1ccccc1NC(=O)c1ccc(C(C)(C)C)cc1 | solubility [10]: 2.6 µM (≈ 1.12 µg/mL); Activity [11]: inactive; Activity [12]: inactive; viability at 48 h, 5 µM [13]: 95.7%; viability at 48 h, 10 µM [14]: 92.2%; viability at 48 h, 50 µM [15]: 72%; LDH release (% cytotoxicity) at 48 h, 5 µM [16]: -1.3%; LDH release (% cytotoxicity) at 48 h, 10 µM [17]: 0.7%; LDH release (% cytotoxicity) at 48 h, 30 µM [18]: 37.3%
10 | 5.27 | 5.30 | 175 |  |  | 7.22 | 22 |  | inactive |  | CC(C)(C)c1ccc(C(=O)Nc2ccccc2C(=O)Nc2cccc(CCC(=O)O)c2)cc1 | 
